In US8987449B2, “Medicine for treating ischemic brain injury and its sequelae, and preparation method thereof” (Haimin Lei, priority 2011, dated 2015):

How the values were obtained:
[1] = system: MCAO rats; assay: Grip strength test of the forelimb of MCAO rats; assay type: in vivo, rat; settings: for Grip value (g) (3 d): model group 317.01 ± 53.81; for Grip value (g) (7 d): model group 285.58 ± 80.02
From the text: 140 healthy SD male rats, weighing 280-300 g, provided by Beijing Vital River Laboratories, certificate No.: SCXK (Jing) 2002-2003. Nylon fishing wire, diameter 0.25 mm, German; YLS-13A, grip strength meter for mice and rats, Shandong Science Technology Instrument Station. The method of [Koizumi J, Yoshida […]. Experimental studies of ischemia brain edema, I: A new experimental model of cerebral embolism in rats in which recirculation can be introduced in the ischemic area[J]. […] After the rats were anesthetized and the skin thereof was disinfected by ethanol. By cutting right in the middle of the neck, the right common carotid artery, internal carotid artery and external carotid artery were separated and the common carotid artery and external carotid artery were ligated. The internal carotid artery was clamped with a bulldog clamp. A cut was made at the crotch of the external carotid artery and the internal carotid artery followed by releasing the bulldog clamp. […] Next, the external carotid artery was ligated and the nylon wire was fixed. In sham operation group, the right common carotid artery, the external carotid artery and the internal carotid artery were only exposed and separated. The rats were routinely raised in different cages. 0.5 ml penicillin was continuously injected into every mouse for three days after the surgery. […] The rats getting 1-3 point were selected for the subsequent experiment. The MCAO rats having the same point were distributed randomly and averagely to each experimental group. […] Evaluated was the change of the grip strength of the forelimb after the cerebral ischemia. A rat was put onto the pulling board making the forepaws thereof grab the cross bar. Then the tester pulled the rat backward to make its body slide backward along the board until the release of the forepaws (during this process it was made sure that the waist of the rat carried no force). The biggest grip strength was read when the forepaws released. Test was carried out twice for every rat and the bigger value was taken. The third and the seventh days after the administration were as the observation time to carry out the test. The SPSS 11.0 software pack was used to carry out the statistical analysis of all the data. The comparison of the enumeration data was carried out with X^2 test P<0.05 had statistical meaning.

[2] = system: Ca^2+—Mg^2+ ATPase; assay: Ca2+-Mg2+ ATPase of MCAO rats (brain homogenate, kit); assay type: in vivo, rat; settings: ischemia side brain homogenate, model group 5.32 ± 2.61
Description: 140 healthy SD male rats, weighing 280-300 g, provided by BeiJing Vital River Laboratories, certificate No.: SCXK (Jing) 2002-2003.
1.3 Experimental reagents: 0.9% physiological saline, Ca^2+—Mg^2+ enzyme kit
10% chloral hydrate 0.35 g/kg was injected into the abdominal cavity of a rat to anesthetize thereof. The rat was fixed as supine position. The skin was disinfected thereof by 75% medical alcohol. It was cut right in the middle of the neck. The right common carotid artery, internal carotid artery and external carotid artery were separated and the common carotid artery and external carotid artery were ligated. The internal carotid artery was clamped with a bulldog clamp. A cut was made at the crotch of the external carotid artery and the internal carotid artery followed by releasing the bulldog clamp. The nylon wire (diameter 0.25 mm, marked at a distance of 18 mm from the head end) was inserted into the cut and the insertion was stopped when some resistance was felt. The insert depth was a little longer than 18 mm to achieve the cerebral ischemia caused by middle cerebral artery occlusion. The internal carotid artery was ligated and the nylon wire was fixed. The muscle and skin were sutured layer by layer. In sham operation group, the right common carotid artery, the external carotid artery and the internal carotid artery were only exposed and separated. The rats were conventionally raised in different cages regularly. 0.5 ml penicillin was continuously injected into every rat for three days after the surgery.
The rat condition was evaluated after 6 h after the surgery when the rats were conscious according to the Zea Longa 5 grades evaluating method, wherein no apparent neurological symptom was evaluated as 0 point; not being able to completely stretch the left front claw was evaluated as 1 point; whirling leftward was evaluated as 2 point; leaning leftward when walking was evaluated as 3 point; having an epileptic seizure, losing consciousness and not being able to walk independently was evaluated as 4 point. The rats getting 1-3 point were selected for the subsequent experiment.
The rats were divided into 7 groups in the experiment, that is, sham operation group, model group, Nimodipine group, LQC-T4 large dosage group, LQC-T4 small dosage group, TMP group, and TMP+Vanillic acid group. The model rats getting 1 point were distributed randomly into the model group and other administration group, while the rats getting 2 point and 3 point were distributed randomly into above 6 groups according the above method and sham operation group was not involved in the above grouping. […]

[3] = 60 mg/kg intragastrically once a day
[4] = 120 mg/kg intragastrically once a day

SMILES: COc1cc(C(=O)OCc2nc(C)c(C)nc2C)ccc1OCc1nc(C)c(C)nc1C [LQC-T4, (3,5,6-trimethylpyrazine-2-yl)methyl 3-methoxy-4-((3,5,6-trimethylpyrazine-2-yl)methoxy) benzoate]
- Grip value (g) (3 d) [1, 3]: 395.50 ± 16.88 g
- Grip value (g) (7 d) [1, 3]: 468.81 ± 78.14 g
- Grip value (g) (3 d) [1, 4]: 386.57 ± 42.35 g
- Grip value (g) (7 d) [1, 4]: 421.68 ± 59.87 g
- Ca—Mg ATPase activity ([2]; 60 mg/kg intragastrically once per day for 10 days): 8.91 ± 4.05
- Ca—Mg ATPase activity ([2]; 120 mg/kg intragastrically once per day for 10 days): 10.07 ± 5.15

SMILES: COCCOC(=O)C1=C(C)NC(C)=C(C(=O)OC(C)C)C1c1cccc([N+](=O)[O-])c1 (stereo not drawn) [Nimodipine, reference compound]
- Grip value (g) (3 d) ([1]; 30 mg/kg once a day): 409.08 ± 65.13 g
- Grip value (g) (7 d) ([1]; 30 mg/kg once a day): 393.08 ± 59.61 g
- Ca—Mg ATPase activity ([2]; 30 mg/kg once per day for 10 days): 13.25 ± 5.73

SMILES: Cc1nc(C)c(C)nc1C [TMP, tetramethylpyrazine, reference compound]
- Grip value (g) (3 d) ([1]; 37 mg/kg once a day): 415.19 ± 26.81 g
- Grip value (g) (7 d) ([1]; 37 mg/kg once a day): 434.22 ± 50.23 g
- Ca—Mg ATPase activity ([2]; 37 mg/kg once per day for 10 days): 9.13 ± 4.11
